Where “and” joins values, the source holds several entries; their conditions need not be identical. Equal values may be shown once.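 A five-concentration, 48-hour dose response in 96-well plates underlies each endpoint, interpolated linearly between surrounding concentrations. At the GI50, growth is halved. At the TGI there is no net growth.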
Test system: SK-MEL-28 melanoma
Assay: growth of human tumour cells (NCI), 48 h

Question: With `O=C(CNc1ccc(Cl)cc1)Nc1ccc(-c2nc3ccccc3s2)cc1` as the compound, how does the GI50 read?
Answer: The GI50 was 5.67 µM.

Question: And the TGI?
Answer: The TGI was 11.6 µM.

Question: `COc1ccc(C(=O)C(c2ccc(OC)cc2)C2(O)C(=O)Nc3ccc([N+](=O)[O-])cc32)cc1` (stereo not given) was tested. Which TGI did it give?
Answer: The TGI was greater than 100 µM.

Question: For `O=C(/C=C/c1ccccc1O)c1ccccc1O`, which TGI is on record?
Answer: The TGI was greater than 100 µM.

Question: With `Cc1nc2c(-c3cnc(N)nc3)nc(N3CCOCC3)nc2n1C(C)C` as the compound, how does the TGI read?
Answer: The TGI was 0.524 µM and 3.51 µM.

Question: How did the GI50 turn out when `CCCCCCCCCCCCOC1C(C(COC2OC(C3COC(C)(C)O3)C3OC(C)(C)OC23)NC(=O)Nc2ccc(C(=O)O)cc2)OC2OC(C)(C)OC21` (stereo not given) was run?
Answer: Its GI50 is 3.16 µM.

Question: And the TGI?
Answer: Its TGI is 13 µM.

Question: Which GI50 does the source give for `CCN(CC)CCC(CNc1ccnc2cc(Cl)ccc12)c1ccc(OC)cc1` (stereo not given) here?
Answer: The GI50 was 1.75 µM and 1.87 µM.

Question: What about the TGI of the same compound?
Answer: The TGI was 3.4 µM and 3.42 µM.

Question: Which results are given for `CCn1c(-c2nonc2N)nc2c(C#CC(C)(C)O)nc(OC[C@H](N)c3ccccc3)cc21`?
Answer: GI50: 4.75 µM; TGI: 8.56 µM

Question: Which results are given for `N#Cc1c(NN)n(C2OC(CO)C(O)C2O)c2ncnc(N)c12` (stereo not given)?
Answer: GI50: 0.0312 µM; TGI: 0.216 µM

Question: With `CCCCCCNC(=O)c1cc(NCc2cc(O)ccc2O)ccc1O` as the compound, how does the GI50 read?
Answer: The GI50 was 12.3 µM.

Question: And the TGI?
Answer: The TGI was 25.4 µM.

Question: For `CC(CCC=O)CCOCc1ccccc1` (stereo not given), which TGI is on record?
Answer: Its TGI is greater than 100 µM.

Question: What does the source list for `Cc1ccc(C)c(C2=C(c3cn(C)c4ccccc34)C(=O)NC2=O)c1`?
Answer: GI50: > 25 µM; TGI: > 25 µM

Question: For `S=C(Nc1ccccc1)N(/N=C/C=C/c1ccccc1)c1nnc(-c2ccccc2)c(-c2ccccc2)n1`, which TGI is on record?
Answer: Its TGI is greater than 100 µM.

Test system: HOP-62 NSCLC
Assay: growth of human tumour cells (NCI), 48 h

Question: Which results are given for `O=C(CNc1ccc(Cl)cc1)Nc1ccc(-c2nc3ccccc3s2)cc1`?
Answer: GI50: 8.62 µM; TGI: 23.8 µM

Question: `COc1ccc(C(=O)C(c2ccc(OC)cc2)C2(O)C(=O)Nc3ccc([N+](=O)[O-])cc32)cc1` (stereo not given) was tested. Which TGI did it give?
Answer: The TGI was greater than 100 µM.

Question: With `O=C(/C=C/c1ccccc1O)c1ccccc1O` as the compound, how does the TGI read?
Answer: The TGI was greater than 100 µM.

Question: Which TGI does the source give for `Cc1nc2c(-c3cnc(N)nc3)nc(N3CCOCC3)nc2n1C(C)C` here?
Answer: The TGI was 3.5 µM and 0.772 µM.

Question: For `CCCCCCCCCCCCOC1C(C(COC2OC(C3COC(C)(C)O3)C3OC(C)(C)OC23)NC(=O)Nc2ccc(C(=O)O)cc2)OC2OC(C)(C)OC21` (stereo not given), which GI50 is on record?
Answer: The GI50 was 3.07 µM.

Question: What about the TGI of the same compound?
Answer: The TGI was 10.4 µM.

Question: `CCN(CC)CCC(CNc1ccnc2cc(Cl)ccc12)c1ccc(OC)cc1` (stereo not given) was tested. Which GI50 did it give?
Answer: The GI50 was 14.4 µM and 9.7 µM.

Question: What about the TGI of the same compound?
Answer: The TGI was 39.2 µM and 34 µM.

Question: For `CCn1c(-c2nonc2N)nc2c(C#CC(C)(C)O)nc(OC[C@H](N)c3ccccc3)cc21`, which GI50 is on record?
Answer: The GI50 was 5.54 µM.

Question: What about the TGI of the same compound?
Answer: The TGI was 9.99 µM.

Question: With `N#Cc1c(NN)n(C2OC(CO)C(O)C2O)c2ncnc(N)c12` (stereo not given) as the compound, how does the GI50 read?
Answer: Its GI50 is 0.247 µM.

Question: And the TGI?
Answer: The TGI was 2.02 µM.

Question: Which results are given for `CCCCCCNC(=O)c1cc(NCc2cc(O)ccc2O)ccc1O`?
Answer: GI50: 30 µM; TGI: 91.5 µM

Question: How did the TGI turn out when `CC(CCC=O)CCOCc1ccccc1` (stereo not given) was run?
Answer: Its TGI is greater than 100 µM.

Question: With `Cc1ccc(C)c(C2=C(c3cn(C)c4ccccc34)C(=O)NC2=O)c1` as the compound, how does the GI50 read?
Answer: Its GI50 is 12.1 µM.

Question: And the TGI?
Answer: The TGI was greater than 25 µM.

Question: How did the TGI turn out when `S=C(Nc1ccccc1)N(/N=C/C=C/c1ccccc1)c1nnc(-c2ccccc2)c(-c2ccccc2)n1` was run?
Answer: The TGI was greater than 100 µM.

Test system: SF-268 CNS
Assay: growth of human tumour cells (NCI), 48 h

Question: With `O=C(CNc1ccc(Cl)cc1)Nc1ccc(-c2nc3ccccc3s2)cc1` as the compound, how does the GI50 read?
Answer: Its GI50 is 3.38 µM.

Question: What about the TGI of the same compound?
Answer: Its TGI is 10.8 µM.

Question: How did the TGI turn out when `COc1ccc(C(=O)C(c2ccc(OC)cc2)C2(O)C(=O)Nc3ccc([N+](=O)[O-])cc32)cc1` (stereo not given) was run?
Answer: The TGI was greater than 100 µM.

Question: With `O=C(/C=C/c1ccccc1O)c1ccccc1O` as the compound, how does the TGI read?
Answer: The TGI was greater than 100 µM.

Question: How did the TGI turn out when `Cc1nc2c(-c3cnc(N)nc3)nc(N3CCOCC3)nc2n1C(C)C` was run?
Answer: The TGI was greater than 100 µM.

Question: Which GI50 does the source give for `CCCCCCCCCCCCOC1C(C(COC2OC(C3COC(C)(C)O3)C3OC(C)(C)OC23)NC(=O)Nc2ccc(C(=O)O)cc2)OC2OC(C)(C)OC21` (stereo not given) here?
Answer: Its GI50 is 3.37 µM.

Question: What about the TGI of the same compound?
Answer: The TGI was 13.7 µM.

Question: How did the GI50 turn out when `CCN(CC)CCC(CNc1ccnc2cc(Cl)ccc12)c1ccc(OC)cc1` (stereo not given) was run?
Answer: The GI50 was 4.19 µM and 5.23 µM.

Question: What about the TGI of the same compound?
Answer: Its TGI is 18.4 µM and 21.4 µM.

Question: `CCn1c(-c2nonc2N)nc2c(C#CC(C)(C)O)nc(OC[C@H](N)c3ccccc3)cc21` was tested. Which GI50 did it give?
Answer: The GI50 was 4.94 µM.

Question: And the TGI?
Answer: Its TGI is 11.2 µM.

Question: With `N#Cc1c(NN)n(C2OC(CO)C(O)C2O)c2ncnc(N)c12` (stereo not given) as the compound, how does the GI50 read?
Answer: The GI50 was 0.171 µM.

Question: What about the TGI of the same compound?
Answer: Its TGI is greater than 45.3 µM.

Question: `CCCCCCNC(=O)c1cc(NCc2cc(O)ccc2O)ccc1O` was tested. Which GI50 did it give?
Answer: Its GI50 is 3.79 µM.

Question: What about the TGI of the same compound?
Answer: Its TGI is 18.1 µM.

Question: Which TGI does the source give for `CC(CCC=O)CCOCc1ccccc1` (stereo not given) here?
Answer: The TGI was greater than 100 µM.

Question: What does the source list for `Cc1ccc(C)c(C2=C(c3cn(C)c4ccccc34)C(=O)NC2=O)c1`?
Answer: GI50: > 25 µM; TGI: > 25 µM

Question: How did the TGI turn out when `S=C(Nc1ccccc1)N(/N=C/C=C/c1ccccc1)c1nnc(-c2ccccc2)c(-c2ccccc2)n1` was run?
Answer: Its TGI is greater than 100 µM.

Test system: CAKI-1 renal
Assay: growth of human tumour cells (NCI), 48 h

Question: How did the GI50 turn out when `O=C(CNc1ccc(Cl)cc1)Nc1ccc(-c2nc3ccccc3s2)cc1` was run?
Answer: The GI50 was 6.8 µM.

Question: And the TGI?
Answer: Its TGI is 20 µM.

Question: How did the TGI turn out when `COc1ccc(C(=O)C(c2ccc(OC)cc2)C2(O)C(=O)Nc3ccc([N+](=O)[O-])cc32)cc1` (stereo not given) was run?
Answer: The TGI was greater than 100 µM.

Question: Which TGI does the source give for `O=C(/C=C/c1ccccc1O)c1ccccc1O` here?
Answer: The TGI was greater than 100 µM.

Question: With `Cc1nc2c(-c3cnc(N)nc3)nc(N3CCOCC3)nc2n1C(C)C` as the compound, how does the TGI read?
Answer: Its TGI is 1.42 µM and 2.94 µM.

Question: How did the GI50 turn out when `CCCCCCCCCCCCOC1C(C(COC2OC(C3COC(C)(C)O3)C3OC(C)(C)OC23)NC(=O)Nc2ccc(C(=O)O)cc2)OC2OC(C)(C)OC21` (stereo not given) was run?
Answer: Its GI50 is 5.45 µM.

Question: And the TGI?
Answer: The TGI was 17.6 µM.

Question: Which results are given for `CCN(CC)CCC(CNc1ccnc2cc(Cl)ccc12)c1ccc(OC)cc1` (stereo not given)?
Answer: GI50: 5.85 µM and 2.54 µM; TGI: 23.2 µM and 15.9 µM

Question: `CCn1c(-c2nonc2N)nc2c(C#CC(C)(C)O)nc(OC[C@H](N)c3ccccc3)cc21` was tested. Which GI50 did it give?
Answer: Its GI50 is 3.94 µM.

Question: What about the TGI of the same compound?
Answer: The TGI was 8.93 µM.

Question: `N#Cc1c(NN)n(C2OC(CO)C(O)C2O)c2ncnc(N)c12` (stereo not given) was tested. Which GI50 did it give?
Answer: The GI50 was 0.0619 µM.

Question: What about the TGI of the same compound?
Answer: Its TGI is 0.639 µM.

Question: Which results are given for `CCCCCCNC(=O)c1cc(NCc2cc(O)ccc2O)ccc1O`?
Answer: GI50: 4.35 µM; TGI: 18.5 µM

Question: Which TGI does the source give for `CC(CCC=O)CCOCc1ccccc1` (stereo not given) here?
Answer: The TGI was greater than 60.8 µM.

Question: What does the source list for `Cc1ccc(C)c(C2=C(c3cn(C)c4ccccc34)C(=O)NC2=O)c1`?
Answer: GI50: > 23.4 µM; TGI: > 25 µM

Question: For `S=C(Nc1ccccc1)N(/N=C/C=C/c1ccccc1)c1nnc(-c2ccccc2)c(-c2ccccc2)n1`, which TGI is on record?
Answer: Its TGI is greater than 100 µM.

Test system: OVCAR-5 ovarian
Assay: growth of human tumour cells (NCI), 48 h

Question: `O=C(CNc1ccc(Cl)cc1)Nc1ccc(-c2nc3ccccc3s2)cc1` was tested. Which GI50 did it give?
Answer: Its GI50 is 5.97 µM.

Question: What about the TGI of the same compound?
Answer: The TGI was 13.3 µM.

Question: `COc1ccc(C(=O)C(c2ccc(OC)cc2)C2(O)C(=O)Nc3ccc([N+](=O)[O-])cc32)cc1` (stereo not given) was tested. Which TGI did it give?
Answer: Its TGI is greater than 100 µM.

Question: For `O=C(/C=C/c1ccccc1O)c1ccccc1O`, which TGI is on record?
Answer: Its TGI is greater than 100 µM.

Question: For `Cc1nc2c(-c3cnc(N)nc3)nc(N3CCOCC3)nc2n1C(C)C`, which TGI is on record?
Answer: Its TGI is greater than 3.48 µM.

Question: For `CCCCCCCCCCCCOC1C(C(COC2OC(C3COC(C)(C)O3)C3OC(C)(C)OC23)NC(=O)Nc2ccc(C(=O)O)cc2)OC2OC(C)(C)OC21` (stereo not given), which GI50 is on record?
Answer: The GI50 was 2.67 µM.

Question: What about the TGI of the same compound?
Answer: The TGI was 6.85 µM.

Question: With `CCN(CC)CCC(CNc1ccnc2cc(Cl)ccc12)c1ccc(OC)cc1` (stereo not given) as the compound, how does the GI50 read?
Answer: Its GI50 is 11.6 µM and 5.65 µM.

Question: What about the TGI of the same compound?
Answer: The TGI was 32.2 µM and 38.6 µM.

Question: For `CCn1c(-c2nonc2N)nc2c(C#CC(C)(C)O)nc(OC[C@H](N)c3ccccc3)cc21`, which GI50 is on record?
Answer: The GI50 was 5.69 µM.

Question: And the TGI?
Answer: Its TGI is 9.99 µM.

Question: How did the GI50 turn out when `N#Cc1c(NN)n(C2OC(CO)C(O)C2O)c2ncnc(N)c12` (stereo not given) was run?
Answer: The GI50 was 0.311 µM.

Question: What about the TGI of the same compound?
Answer: The TGI was 14.4 µM.

Question: How did the GI50 turn out when `CCCCCCNC(=O)c1cc(NCc2cc(O)ccc2O)ccc1O` was run?
Answer: Its GI50 is 6.63 µM.

Question: And the TGI?
Answer: Its TGI is 20.8 µM.

Question: With `CC(CCC=O)CCOCc1ccccc1` (stereo not given) as the compound, how does the TGI read?
Answer: The TGI was greater than 100 µM.

Question: What does the source list for `Cc1ccc(C)c(C2=C(c3cn(C)c4ccccc34)C(=O)NC2=O)c1`?
Answer: GI50: > 25 µM; TGI: > 25 µM

Question: For `S=C(Nc1ccccc1)N(/N=C/C=C/c1ccccc1)c1nnc(-c2ccccc2)c(-c2ccccc2)n1`, which TGI is on record?
Answer: The TGI was greater than 100 µM.
